Read-outs that look alike come from different tables or passages of the source.
Experiments:
[1] = tested on: T-Rex 293 cell line SC3 cells having increased expression of androgen receptor protein due to exposure to doxycycline; test: Cellular growth inhibition, T-Rex 293 SC3 cells with doxycycline-induced androgen receptor (CellTiter-Glo 2.0, 72 hours); assay type: cell-based; settings: for GI50: T-Rex 293 SC3 cells with 10 ng/ml doxycycline (increased androgen receptor expression), 72 hours, CellTiter-Glo 2.0; for Ratio of GI50's: GI50 of the top compound in the pair divided by GI50 of the lower compound, T-Rex 293 SC3 cells with doxycycline-induced androgen receptor
[2] = tested on: T-Rex 293 cell line SC3 cells lacking increased expression of androgen receptor protein; test: Cellular growth inhibition, T-Rex 293 SC3 cells without doxycycline (CellTiter-Glo 2.0, 72 hours); assay type: cell-based; settings: T-Rex 293 SC3 cells not exposed to doxycycline (no increased androgen receptor expression)
[3] = tested on: VCaP cells; test: Cellular growth inhibition assay for VCaP cells (CellTiter-Glo 2.0, 72 hours); assay type: cell-based, human; settings: for GI50: CellTiter-Glo 2.0; for Ratio of GI50's: GI50 of the top compound in the pair divided by GI50 of the lower compound
[4] = tested on: T47D cells; test: Cellular growth inhibition assay for T47D cells (CellTiter-Glo 2.0, 72 hours); assay type: cell-based, human
Description: Exemplary compounds were tested for ability to inhibit the proliferation of T47D cells. T47D cells are a commercially available human breast cancer cell line.
T47D cells were purchased from American Type Cell Culture (ATCC Cat #HTB-133) and then seeded on poly-D-lysine coated, black clear-bottom 384-well plates at 3000/well in 25 μL Dulbecco's Modified Eagle Medium (DMEM) supplemented with 10% w/w Fetal bovine serum (FBS), 0.2 units/mL recombinant human insulin (Gibco Cat #12585014), and 1% w/w Pen-Strep. Pen-Strep is a commercially available mixture of penicillin G and streptomycin, which is used in mammalian cell culture media to prevent bacterial contamination. Dulbecco's Modified Eagle Medium (DMEM) supplemented with 10% w/w fetal bovine serum (FBS), 0.2 units/mL recombinant human insulin, and 1% w/w Pen-Strep is herein referred to as Treatment Medium. Following seeding of cells in the plates, the plates were spun at 300×g for 30 seconds, then equilibrated to room temperature for 30 minutes, and then deposited in a humidified tissue culture incubator maintained at 37° C. with 5% CO2.
At 24 hours after seeding of the cells, dilutions of test compound were prepared in DMSO and dissolved in Treatment Medium, to achieve a final DMSO concentration of 0.5% w/w, thereby providing the Test Compound Solution. A 25 μL aliquot of the Test Compound Solution was added to cells in the well plates. An equal volume of a solution containing DMSO and Treatment Medium was used as a negative control. Following treatment of cells with Test Compound Solution or said equal volume of a solution containing DMSO and Treatment Medium, the plates were spun at 300×g for 30 seconds, and then left in an incubator for 72 hours.
At the end of the treatment duration, cell viability was quantified with CellTiter-Glo 2.0 reagent (Promega Cat #G9243). For this purpose, plates were equilibrated to room temperature for 30 minutes, and then 25 μL of CellTiter-Glo 2.0 reagent was added to cells in the plate wells. Plates were then agitated on a shaker for two minutes at 500 rpm and subsequently incubated at room temperature for 10 minutes. Following incubation, the plates were spun at 3000×g for 30 seconds, then sealed with an optical adhesive cover, and luminescence readings were measured with an En Vision Plate Reader (Perkin Elmer).
Data was normalized using zero luminescence for baseline. A four-parameter non-linear regression curve fit was applied to dose-response data in GraphPad Prism data analysis software to determine the half-maximal growth inhibitory concentration (GI50) for each test compound.

SMILES	GI50 [1] [nM]	GI50 ([2]; 72 h) [nM]	GI50 ([3]; Homo sapiens, VCaP, 72 h) [nM]	GI50 ([4]; Homo sapiens, T47D, 72 h) [nM]	GI50 [4] [nM]	GI50 [2] [nM]	GI50 ([3]; 72 hours) [nM]	Ratio of GI50's [1]	Ratio of GI50's [3]
COc1cc(O[C@H]2CC[C@H](NC(=O)c3ncc(N4CCC5(CCC(c6ccc(C7=N[C@@H](C)c8nnc(C)n8-c8sc(C)c(C)c87)cc6)CC5)C4)cn3)CC2)ccc1C#N (some centres unmarked) [Compound I-102]	< 500	< 500	< 500	< 500					
COc1cc(O[C@H]2CC[C@H](NC(=O)c3ccc(N4CCC5(CN(c6ccc(C7=N[C@@H](C)c8nnc(C)n8-c8sc(C)c(C)c87)cc6)CC5(F)F)C4)nn3)CC2)ccc1C#N (some centres unmarked) [Compound I-103]	< 500	< 500	500 to 1500		500 to 1500				
COc1cc(O[C@H]2CC[C@H](NC(=O)c3ccc(N4CCC5(CN(c6ccc(C7=N[C@@H](C)c8nnc(C)n8-c8sc(C)c(C)c87)cc6)CC5(F)F)C4)nn3)CC2)ccc1C#N (some centres unmarked) [Compound I-104]	< 500				1500 to 3000	500 to 1500	500 to 1500		
Cc1sc2c(c1C)C(c1ccc(CC3CC4(CCN(c5ncc(C(=O)N[C@H]6C(C)(C)[C@H](Oc7ccc(C#N)c(OC(F)(F)F)c7)C6(C)C)cn5)CC4)C3)cc1)=N[C@@H](Cc1ncco1)c1nnc(C)n1-2 [II-1, N-[3-[4-cyano-3-(trifluoromethoxy)phenoxy]-2,2,4,4-tetramethyl-cyclobutyl]-2-[2-[[4-[(9S)-4,5,13-trimethyl-9-(oxazol-2-ylmethyl)-3-thia-1,8,11,12-tetrazatricyclo[8.3.0.0^2,6]trideca-2 (6),4,7,10,12-pentaen-7-yl]phenyl]methyl]-7-azaspiro[3.5]nonan-7-yl]pyrimidine-5-carboxamide]	< 500	< 500	> 3000	< 500					
Cc1sc2c(c1C)C(c1ccc(OC3CC4(CCN(c5ncc(C(=O)N[C@H]6C(C)(C)[C@H](Oc7ccc(C#N)c(OC(F)(F)F)c7)C6(C)C)cn5)CC4)C3)cc1)=N[C@@H](Cc1ncco1)c1nnc(C)n1-2 [II-2]				< 500					
COc1cc(O[C@H]2C(C)(C)[C@H](NC(=O)c3cnc(N4CCC(CC5CN(c6ccc(C7=N[C@@H](C)c8nnc(C)n8-c8sc(C)c(C)c87)cc6)C5)CC4)nc3)C2(C)C)ccc1C#N [II-3]				< 500					
COc1cc(O[C@H]2C(C)(C)[C@H](NC(=O)c3cnc(N4CCC5(CCN(c6ccc(C7=N[C@@H](C)c8nnc(C)n8-c8sc(C)c(C)c87)cc6)CC5)C4)nc3)C2(C)C)ccc1C#N [II-4, N-[3-(4-cyano-3-methoxy-phenoxy)-2,2,4,4-tetramethyl-cyclobutyl]-2-[8-[4-[(9S)-4,5,9,13-tetramethyl-3-thia-1,8,11,12-tetrazatricyclo[8.3.0.0^2,6]trideca-2 (6),4,7,10,12-pentaen-7-yl]phenyl]-2,8-diazaspiro[4.5]decan-2-yl]pyrimidine-5-carboxamide]	< 500	< 500	< 500	< 500					
COc1cc(O[C@H]2C(C)(C)[C@H](NC(=O)c3ccc(N4CCC5(CC4)CC(Cc4ccc(C6=N[C@@H](C)c7nnc(C)n7-c7sc(C)c(C)c76)cc4)C5)nc3)C2(C)C)ccc1C#N [II-6]				< 500					
COc1cc(O[C@H]2C(C)(C)[C@H](NC(=O)c3cnc(N4CCC5(CCC(c6ccc(C7=N[C@@H](C)c8nnc(C)n8-c8sc(C)c(C)c87)cc6)CC5)C4)nc3)C2(C)C)ccc1C#N [II-7]	< 500	< 500	1500 to 3000	< 500					
COc1cc(O[C@H]2C(C)(C)[C@H](NC(=O)c3cnc(N4CCC5(CCC(c6ccc(C7=N[C@@H](C)c8nnc(C)n8-c8sc(C)c(C)c87)cc6)CC5)C4)nc3)C2(C)C)ccc1C#N [II-8]					500 to 1500				
COc1cc(O[C@H]2C(C)(C)[C@H](NC(=O)c3cnc(N4CCC5(CC4)CC(Cc4ccc(C6=N[C@@H](Cc7ncco7)c7nnc(C)n7-c7sc(C)c(C)c76)cc4)C5)nc3)C2(C)C)ccc1C#N [II-10, N-[3-(4-cyano-3-methoxy-phenoxy)-2,2,4,4-tetramethyl-cyclobutyl]-2-[2-[[4-[(9S)-4,5,13-trimethyl-9-(oxazol-2-ylmethyl)-3-thia-1,8,11,12-tetrazatricyclo[8.3.0.0^2,6]trideca-2 (6),4,7,10,12-pentaen-7-yl]phenyl]methyl]-7-azaspiro[3.5]nonan-7-yl]pyrimidine-5-carboxamide]	< 500	500 to 1500	< 500	< 500				1	1
COc1cc(O[C@H]2C(C)(C)[C@H](NC(=O)c3cnc(N4CCC5(CCC(c6ccc(C7=N[C@@H](Cc8ncco8)c8nnc(C)n8-c8sc(C)c(C)c87)cc6)CC5)C4)nc3)C2(C)C)ccc1C#N [II-11, N-[(1r,3r)-3-(4-cyano-3-methoxy-phenoxy)-2,2,4,4-tetramethyl-cyclobutyl]-2-[8-[4-[(9S)-4,5,13-trimethyl-9-(oxazol-2-ylmethyl)-3-thia-1,8,11,12-tetrazatricyclo[8.3.0.0^2,6]trideca-2 (6),4,7,10,12-pentaen-7-yl]phenyl]-2-azaspiro[4.5]decan-2-yl]pyrimidine-5-carboxamide]	< 500	< 500	< 500	< 500					
COc1cc(O[C@H]2C(C)(C)[C@H](NC(=O)c3cnc(N4CCC5(CCC(c6ccc(C7=N[C@@H](Cc8ncco8)c8nnc(C)n8-c8sc(C)c(C)c87)cc6)CC5)C4)nc3)C2(C)C)ccc1C#N [II-12]	< 500				< 500	< 500	< 500	1	1
CCc1csc2c1C(c1ccc(OC3CC4(CCN(c5ncc(C(=O)N[C@H]6C(C)(C)[C@H](Oc7ccc(C#N)c(OC)c7)C6(C)C)cn5)CC4)C3)cc1)=N[C@@H](Cc1ncco1)c1nnc(C)n1-2 [III-1, N-[(1r,3r)-3-(4-cyano-3-methoxy-phenoxy)-2,2,4,4-tetramethyl-cyclobutyl]-2-[2-[4-[(9S)-5-ethyl-13-methyl-9-(oxazol-2-ylmethyl)-3-thia-1,8,11,12-tetrazatricyclo[8.3.0.0^2,6]trideca-2 (6),4,7,10,12-pentaen-7-yl]phenoxy]-7-azaspiro[3.5]nonan-7-yl]pyrimidine-5-carboxamide]	< 500	500 to 1500	< 500						
COc1cc(O[C@H]2C(C)(C)[C@H](NC(=O)c3cnc(N4CCC5(CC4)CC(Oc4ccc(C6=N[C@@H](Cc7ncco7)c7nnc(C)n7-c7sc(CO)c(C)c76)cc4)C5)nc3)C2(C)C)ccc1C#N [III-2, N-[(1r,3r)-3-(4-cyano-3-methoxy-phenoxy)-2,2,4,4-tetramethyl-cyclobutyl]-2-[2-[4-[(9S)-4-(hydroxymethyl)-5,13-dimethyl-9-(oxazol-2-ylmethyl)-3-thia-1,8,11,12-tetrazatricyclo[8.3.0.0^2,6]trideca-2 (6),4,7,10,12-pentaen-7-yl]phenoxy]-7-azaspiro[3.5]nonan-7-yl]pyrimidine-5-carboxamide]	< 500	< 500	< 500						
COc1cc(O[C@H]2C(C)(C)[C@@H](NC(=O)c3cnc(N4CCC5(CC4)CC(Oc4ccc(C6=NC(Cc7ncco7)c7nnc(C)n7-c7sc(C)c(C)c76)cc4)C5)nc3)C2(C)C)ccc1C#N (some centres unmarked) [III-3, N-[(1r,3s)-3-(4-cyano-3-methoxy-phenoxy)-2,2,4,4-tetramethyl-cyclobutyl]-2-[2-[4-[4,5,13-trimethyl-9-(oxazol-2-ylmethyl)-3-thia-1,8,11,12-tetrazatricyclo[8.3.0.0^2,6]trideca-2 (6),4,7,10,12-pentaen-7-yl]phenoxy]-7-azaspiro[3.5]nonan-7-yl]pyrimidine-5-carboxamide]	< 500	< 500	< 500						

Reference: patent publication US12668599B2, “Heterobifunctional compounds and methods of treating disease” (Halda Therapeutics OpCo, Inc., priority 2023, dated 2026)
